Experimental data from US20230218721A1, “INCRETIN ANALOGUE, PREPARATION METHOD THEREFOR, AND USE THEREOF” (ZHEJIANG DOER BIOLOGICS CO., LTD., priority 2020, published 2023).
Read-outs that look alike come from different tables or passages of the source. Each block holds one molecule with its values, some of them ahead of it. Starred links: 1 amine or outer side, 2 acyl side, 3 side chain; linkers in the order of their positions; H or OH if unused. Residues, ends and D or L forms follow the SMILES beside them. Groups on a side chain read outwards from the residue. *: point of attachment. γGlu = O=C(O)[C@H](CCC(=O)[*:2])N[*:1]; Palmitoyl = CCCCCCCCCCCCCCCC(=O)*

Experiments:
[1] = assay type: in vitro ADME, rat
Procedure: In this example, the serum stability of the incretin analogue […] was determined by the following steps: (1) The incretin analogues […] and the control (Dulaglutide) were formulated with 5 mM Tris-HCl, pH 8.5, and 0.02% TWEEN-80 solution into solutions at a concertration of 1.0 mg/ml, which were sterilized and filtered (0.22 μm, Millipore SLGP033RB), then diluted 10-fold with rat serum, mixed evenly and divided into sterile centrifuge tubes; […] (3) The GLP-1R agonist activity was detected.

GLP-1R = molecular target: T1, GLP-1R (Homo sapiens, UniProt P43220); assay: GLP-1R agonist activity assay, luciferase reporter gene in stably transfected CHO-K1 cells; assay type: cell-based; conditions: CRE-luciferase reporter, stimulation for 6 h
T1 construct: expressed in transfected cells
Description: GLP-1R agonist activity was detected using luciferase reporter gene assay (Jonathan W Day et, al.: Nat Chem Biol. 2009 October; 5 (10): 749-57). Humanized GLP-1R gene was cloned into mammalian cell expression plasmid pCDNA3.1 to construct recombinant expression plasmid pCDNA3.1-GLP-1R, and at the same time, luciferase full-length gene was cloned into pCRE plasmid to get pCRE-Luc recombinant plasmid. The pcDNA3.1-GLP-1R and pCRE-Luc plasmids were transfected into CHO-K1 cells at a molar ratio of 1:10, and the stably transfected cell strains were screened. Cells were cultured in a 9-cm cell culture dish with DMEM/F12 medium containing 10% FBS and 300 μg/ml G418. When the confluence reached about 90%, the culture supernatant was discarded. […] 2 ml DMEM/F12 medium containing 10% FBS and 300 μg/ml G418 was added for resuspension, and the number of cells was counted. […] Dulaglutide (Trade name: Trulicity®)) were diluted with DMEM/F12 medium containing 1% BSA to a series of defined concentration, 27 added into cell culture wells at 100 μl/well, and detected after stimulation for 6 h. The samples were detected according to the specification of Lucifersae reporter kit (Ray Biotech, 29 Cat: 68-LuciR-5200). […]

[2] = cited from earlier work

T1 sequence (P43220 24-463): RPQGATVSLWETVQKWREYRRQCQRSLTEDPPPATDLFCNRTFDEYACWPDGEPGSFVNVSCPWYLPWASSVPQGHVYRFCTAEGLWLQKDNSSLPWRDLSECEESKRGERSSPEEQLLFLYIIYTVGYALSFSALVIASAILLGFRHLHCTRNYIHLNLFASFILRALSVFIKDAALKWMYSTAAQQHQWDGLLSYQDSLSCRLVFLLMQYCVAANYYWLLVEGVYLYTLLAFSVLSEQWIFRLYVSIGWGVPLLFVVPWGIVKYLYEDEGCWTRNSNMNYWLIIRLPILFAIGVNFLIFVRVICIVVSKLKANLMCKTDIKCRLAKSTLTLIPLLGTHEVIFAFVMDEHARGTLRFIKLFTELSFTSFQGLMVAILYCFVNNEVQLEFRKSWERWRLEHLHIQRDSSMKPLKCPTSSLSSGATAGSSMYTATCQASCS

Molecule: CCCCCCCCCCCCCCCC(=O)N[C@@H](CCC(=O)NCCCC[C@H](NC(=O)[C@H](CC(=O)O)NC(=O)[C@H](CO)NC(=O)[C@@H](NC(=O)[C@H](Cc1ccccc1)NC(=O)[C@@H](NC(=O)CNC(=O)[C@H](CCC(=O)O)NC(=O)[C@H](CO)NC(=O)[C@@H](N)Cc1ccc(O)cc1)[C@@H](C)O)[C@@H](C)O)C(=O)N[C@@H](CO)C(=O)N[C@@H](CCCCN)C(=O)N[C@@H](Cc1ccc(O)cc1)C(=O)N[C@@H](CC(C)C)C(=O)N[C@@H](CC(=O)O)C(=O)N[C@@H](CO)C(=O)N[C@@H](CCC(N)=O)C(=O)N[C@@H](C)C(=O)N[C@@H](C)C(=O)N[C@@H](CCC(N)=O)C(=O)N[C@@H](CC(=O)O)C(=O)N[C@@H](Cc1ccccc1)C(=O)N[C@H](C(=O)N[C@@H](CCC(N)=O)C(=O)N[C@@H](Cc1c[nH]c2ccccc12)C(=O)N[C@@H](CC(C)C)C(=O)N[C@@H](CC(C)C)C(=O)N[C@@H](C)C(=O)NCC(=O)NCC(=O)N1CCC[C@H]1C(=O)N[C@@H](CO)C(=O)N[C@@H](CO)C(=O)NCC(=O)N[C@@H](C)C(=O)N1CCC[C@H]1C(=O)N1CCC[C@H]1C(=O)N1CCC[C@H]1C(=O)N[C@@H](CO)C(N)=O)C(C)C)C(=O)O [P3YELAN] (H-YSEGTFTSDK([γGlu-Palmitoyl])SKYLDSQAAQDFVQWLLAGGPSSGAPPPS-NH2)
- residual GLP-1R agonist activity over time in serum [1]: maintains a higher GLP-1R agonist activity in a long time

- EC50 (GLP-1R): 0.01 nM
Molecule: Dulaglutide

Molecule: Semeglutide
- average clinical weight loss ([2]; 0.5 mg treatment group): 4.2 kg
- average clinical weight loss ([2]; 1.0 mg treatment group): 5.5 kg
